Assays:
DC2.4 cells = test: MHC class I cross presentation of OVA257-264 in DC2.4 cells; assay type: cell-based, murine; settings: 6 h incubation, 5 μM, 25-D1.16 antibody, flow cytometry, with or without SiO2—PO3H2
Description: After an incubation time of 6 h, the test substances were removed by washing with phosphate-buffered saline (PBS). In the next step, the cells were incubated with CD16/CD32 antibody in order to block the non-specific binding of the detection antibody to the Fc (Fragment, crystallizable) receptor of the cells. After incubation with 25-D1.16 antibody, the amount of cross-presented OVA257-264 was quantified by flow cytometry. FIG. 16: […] Quantification was carried out by flow cytometry after labeling with 25-D1.16 detection antibody.

influenza A virus PR8/34 = assay type: in vivo, C57BL/6 mice; settings: s.c. 24 hours before intranasal five-fold LD50 influenza A PR8/34
[1] = Poly(I:C) loading capacity of SiO2-Arg nanoparticles (DLS, zeta potential); assay type: physicochemical; settings: SiO2-Arg loaded with poly(I:C) LMW, 0.9% NaCl

Row | Substance | OVA257-264 MHC class I presentation (DC2.4 cells) | improvement compared to the placebo group (influenza A virus PR8/34) | PDI [1] | Peak [1] | Z ave [1]
1 | SIINFEKL (Ovalbumin aa 258-265; listed as Gallus gallus) [OVA257-264] | presented in significant amounts |  |  |  | 
2 | polyinosinic:polycytidylic acid [poly(I:C)] |  | does not show any statistically significant improvement | 0.557 | 12.69 nm | 33.83 nm
